In PubChem BioAssay (NCI):
Where “and” joins values, the source holds several entries; their conditions need not be identical. Equal values may be shown once.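 All cell lines were grown in 96-well plates and treated with compound for 48 hours. Here, GI50 denotes the concentration required for 50% inhibition of growth. TGI denotes the concentration required for complete inhibition of growth.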

Assays:
Assay in all cases: DTP human tumour cell line panel, 48 h
SK-MEL-5 melanoma = system: SK-MEL-5 melanoma
BT-549 breast = system: BT-549 breast
UO-31 renal = system: UO-31 renal
ACHN renal = system: ACHN renal
HS 578T breast = system: HS 578T breast
OVCAR-4 ovarian = system: OVCAR-4 ovarian
SNB-19 CNS = system: SNB-19 CNS
DU-145 prostate = system: DU-145 prostate

| Structure (SMILES) | GI50 (SK-MEL-5 melanoma) | TGI (SK-MEL-5 melanoma) | GI50 (BT-549 breast) | TGI (BT-549 breast) | GI50 (UO-31 renal) | TGI (UO-31 renal) | GI50 (ACHN renal) | TGI (ACHN renal) | GI50 (HS 578T breast) | TGI (HS 578T breast) | GI50 (OVCAR-4 ovarian) | TGI (OVCAR-4 ovarian) | GI50 (SNB-19 CNS) | TGI (SNB-19 CNS) | GI50 (DU-145 prostate) | TGI (DU-145 prostate) |
| --- | --- | --- | --- | --- | --- | --- | --- | --- | --- | --- | --- | --- | --- | --- | --- | --- |
| Cc1cn2c(=O)n(c1=O)Cc1ccccc1C2 | 83.1 µM | > 100 µM | 48.4 µM | > 100 µM | 32.3 µM | > 100 µM | > 100 µM | > 100 µM | 8.97 µM | > 100 µM | > 100 µM | > 100 µM | > 100 µM | > 100 µM | > 100 µM | > 100 µM |
| CC1(C)N[P+]2(Nc3ccccc3O2)OC1=O (configuration not stated) | – | > 100 µM | – | > 100 µM | – | > 100 µM | – | > 100 µM | – | > 100 µM | – | > 100 µM | – | > 100 µM | – | > 100 µM |
| COc1ccc(-c2ccccc2)cc1-c1c(Nc2cc(Cl)cc(Cl)c2O)c(=O)c1=O | 0.97 µM | 2.25 µM | 1.41 µM | 4.59 µM | 1.25 µM | > 50 µM | 1.5 µM | > 50 µM | 1.25 µM | 4.55 µM | 1.59 µM | > 50 µM | 1.84 µM | > 50 µM | 1.7 µM | > 50 µM |
| Cc1cc(C)c2c(N)c3cccc(C)c3nc2n1 | 1.44 µM | 2.74 µM | 3.48 µM | 20.2 µM | 1.9 µM | 59.6 µM | 0.852 µM | 5.08 µM | 3.25 µM | 25.1 µM | 2.29 µM | 8.1 µM | 2.21 µM | 8.73 µM | 2.33 µM | 6.5 µM |
| Cc1cc2nc3c4cccc(O)c4n(CCN(C)C)c3nc2cc1C | 1.67 µM | 3.08 µM | 5.38 µM | 32.8 µM | 0.86 µM | 3.28 µM | 1.09 µM | 3.18 µM | 3.32 µM | 31.8 µM | 2.89 µM | 11.9 µM | 2.62 µM | 26.3 µM | 2.96 µM | 8.79 µM |
| CNCCOC(=O)/C=C1/CCC2C(C(O)CC3C(C)(C(=O)OC)CCCC23C)C1C (configuration not stated) | 0.0163 µM | 0.0321 µM | 0.0242 µM | 0.064 µM | 0.0187 µM | 0.0372 µM | < 0.01 µM | 0.0173 µM | < 0.01 µM | 0.298 µM | 0.0183 µM | 0.034 µM | 0.0428 µM | 0.152 µM | 0.016 µM | 0.0305 µM |
| COc1cc2c3c(n(CCCNCCNCCCN)c(=O)c2cc1OC)-c1cc2c(cc1C3=O)OCO2 | 6.41 µM | 20.3 µM | 15.1 µM | 35.2 µM | 5.67 µM | 23.6 µM | 0.18 µM | 2.6 µM | 1.38 µM | 7.93 µM | 4.64 µM | 19.9 µM | 5.73 µM | 31.2 µM | 4.6 µM | 17 µM |
| C=C1C(=O)O[C@H]2C[C@@H]1CCC1(C)OC1CC/C(C)=C/CC[C@H]2C (some centres not stated) | 17.3 µM | 31.5 µM | 23.5 µM | 45.3 µM | 29.8 µM | 86.6 µM | > 100 µM | > 100 µM | 24 µM | 61 µM | – | – | 16 µM | 32.9 µM | – | – |
| CN(C)CCNC(=O)c1nc([N+](=O)[O-])cn1C | – | > 100 µM | – | > 100 µM | – | > 100 µM | – | > 100 µM | – | > 100 µM | – | > 100 µM | – | > 100 µM | – | > 100 µM |
| CCCCCCCCCCCCCCCCn1cc[n+](Cc2ccccc2)c1C | – | – | – | – | 1.49 µM | 2.99 µM | 1.89 µM | 7 µM | 3.62 µM | > 100 µM | 0.451 µM | 4.55 µM | 0.565 µM | 2.01 µM | 1.07 µM and 0.235 µM | 2.3 µM and 1.05 µM |
| Cc1ccc(/C(=C/C=C(C#N)C#N)Sc2ccccn2)cc1 | 2.51 µM | 7.55 µM | 2.59 µM | 6.85 µM | 3.21 µM | – | 1.83 µM | 3.52 µM | 2.46 µM | 8.32 µM | 3.01 µM | 11.6 µM | 10.1 µM | > 45.5 µM | 2.28 µM | 6.06 µM |
| CC1(C)Cc2c(Br)c(Br)c(Br)c(OCC(O)CN3CCOCC3)c2O1 (configuration not stated) | 10.2 µM | 22 µM | 10.5 µM | 22.3 µM | 12.8 µM | 27.4 µM | 15.1 µM | 28.7 µM | 17.2 µM | 47.4 µM | 19.3 µM | > 100 µM | 13.4 µM | 26.4 µM | 13.4 µM | 26.2 µM |
| O=C(CCCn1ccnc1[N+](=O)[O-])NCCn1ccnc1[N+](=O)[O-] | – | > 100 µM | – | > 100 µM | – | > 100 µM | – | > 100 µM | – | > 100 µM | – | > 100 µM | – | > 100 µM | – | > 100 µM |
| COc1cc(OC)cc(-c2cncn2-c2ccc(-c3nc4cc(OC)cc(OC)c4s3)cc2)c1 | 3.29 µM | > 100 µM | 3.09 µM | > 100 µM | – | – | > 100 µM | > 100 µM | 5.02 µM | > 100 µM | – | – | > 100 µM | > 100 µM | > 100 µM | > 100 µM |
| COc1ccc(C(=O)CC(c2ccc(OC)c(OC)c2)c2c(O)c3ccccc3oc2=O)cc1OC (configuration not stated) | – | > 100 µM | – | > 100 µM | – | > 100 µM | – | > 100 µM | – | > 100 µM | – | > 100 µM | – | > 100 µM | – | > 100 µM |
| COc1cc(-c2n/c(=C\c3c(O)[nH]c4ccccc34)cc3c2=Nc2ccccc2-3)cc(OC)c1OC | 0.289 µM | 2.88 µM | 0.486 µM | 2.47 µM | 2.5 µM | > 100 µM | 1.11 µM | > 100 µM | 0.418 µM | 68 µM | 0.506 µM | > 100 µM | 2.68 µM | > 100 µM | 1.12 µM | > 100 µM |
| O=C1C=CC(=O)c2c1ncc1c2nc2sccn21 | 16.9 µM | 37.3 µM | 12.4 µM | 27.7 µM | 13.8 µM | 72.3 µM | 21.7 µM | 39.6 µM | 12.7 µM | 50.8 µM | 27.7 µM | 59.8 µM | 63.8 µM | > 100 µM | 12.8 µM | 40 µM |
| CO/N=C(/COc1c(-c2ccccc2)oc2ccccc2c1=O)c1ccc(F)cc1 | > 100 µM | > 100 µM | 82.9 µM | > 100 µM | > 100 µM | > 100 µM | 31.8 µM | > 100 µM | 30.2 µM | > 100 µM | 25.9 µM | 71.4 µM | – | – | > 100 µM | > 100 µM |
| COc1ccc(-n2c3c(c4c(CN(C)C)c(O)c(C)cc42)CCc2ccccc2C3=O)cc1 | 21.5 µM | 68.8 µM | 14.4 µM | > 100 µM | 45.9 µM | > 100 µM | 47 µM | > 100 µM | 48.2 µM | > 100 µM | – | – | > 100 µM | > 100 µM | 21.4 µM | > 100 µM |
| COc1ccc(-c2cc(-c3nnc(SCC(=O)Nc4ccc(C(C)=O)cc4)o3)c3ccccc3n2)cc1 | > 100 µM | > 100 µM | 8.77 µM | > 100 µM | > 100 µM | > 100 µM | 5.64 µM | 31.7 µM | 14.2 µM | 92.3 µM | – | – | 12.6 µM | > 100 µM | > 100 µM | > 100 µM |
| N#C[C@H]1Nc2ccccc2[C@@H](O)C1O (some centres not stated) | – | > 100 µM | – | – | – | – | – | > 100 µM | – | > 100 µM | – | > 100 µM | – | – | – | > 100 µM |
| NC(N)=N/N=C/c1c(-c2ccc(Cl)c([N+](=O)[O-])c2)nc2ccccn12 | 13.3 µM | 41.3 µM | 0.119 µM | 1.18 µM | 1.71 µM | 3.79 µM | 11.3 µM | 34.9 µM | 24.2 µM | 60.2 µM | – | – | – | – | 1.94 µM | 5.6 µM |
| COc1ccc(-c2csc3c2-n2cccc2C3=O)cc1O | 0.0326 µM | 0.237 µM | 0.0197 µM | > 100 µM | 0.401 µM | 50.6 µM | < 0.0489 µM | > 100 µM | < 0.0165 µM | > 100 µM | 0.579 µM | > 100 µM | 3.44 µM | > 100 µM | – | – |
| COc1cc(/C=C2\C(=O)Nc3ccccc32)cc(OC)c1OC | 11.1 µM | 57.1 µM | 28.7 µM | > 100 µM | 30.4 µM | > 100 µM | 26.4 µM | > 100 µM | 28.7 µM | > 100 µM | 22.1 µM | > 100 µM | 27.1 µM | > 100 µM | – | – |
| Cc1ccc(Oc2nc3ccccc3cc2-c2nnc(Cn3c(COc4ccccc4)nc4ccccc43)o2)cc1 | 1.9 µM | 3.97 µM | 1.77 µM | 4.06 µM | 1.19 µM | 10.2 µM | – | – | 4.39 µM | 33.8 µM | 2.36 µM | 10.2 µM | 3.78 µM | 17 µM | 5.46 µM | 45.7 µM |
| CC(=O)OC12CC(C)C3(O)C4C=C(C)C(=O)[C@@]4(O)CC(CO)=C[C@H]3C1C2(C)C (some centres not stated) | 33.4 µM | > 1000 µM | > 1000 µM | > 1000 µM | > 1000 µM | > 1000 µM | > 1000 µM | > 1000 µM | – | – | > 1000 µM | > 1000 µM | > 1000 µM | > 1000 µM | > 1000 µM | > 1000 µM |
